The results in this text go back to ChEMBL document CHEMBL1201862, “PubChem BioAssay data set” (2004).

Test systems include ACHN; HOP-92; U-251; COLO 205; T47D; K562; NCI-H226; SNB-19; MDA-MB-435; HL-60; RPMI-8226; TK-10; UO-31; CCRF-CEM; MDA-MB-231; NCI-H522; UACC-257; EKVX; HT-29; RXF 393.
Common to all, as to assay: NCI tumour cell line growth inhibition, 48 h

Molecules are shown by their SMILES.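 Cultured in 96-well plates, cells were exposed to test compound for 48 hours across five concentrations. Abbreviation: GI50, concentration required for 50% inhibition of growth.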 Activity calls are given as the source filed them. Rule as the data show it: active = GI50 up to about 1.1 µM and inactive = higher.

Take `C=C=C(CC1CCCCC1=O)S(=O)(=O)c1ccccc1` (stereo not given): the GI50 in the experiment on ACHN is > 10 µM (inactive); in the experiment with HOP-92 it was > 10 µM (inactive); in the experiment on U-251, > 10 µM (inactive); in the experiment with COLO 205, > 10 µM (inactive); in the experiment with T47D, > 10 µM (inactive); with K562, 1.69 µM (inactive). Also, the GI50 with NCI-H226 is > 10 µM (inactive); with SNB-19 it was > 10 µM (inactive); in the experiment with MDA-MB-435, > 7.23 µM (inactive); with HL-60, 1.52 µM (inactive); with RPMI-8226, 1.04 µM (active); in the experiment on TK-10 it was > 10 µM (inactive). Besides, the GI50 is > 10 µM (inactive) with UO-31; 2.16 µM (inactive) with CCRF-CEM; > 10 µM (inactive) in the experiment with MDA-MB-231; 0.245 µM (active) with NCI-H522; > 10 µM (inactive) with UACC-257; > 10 µM (inactive) in the experiment on EKVX. Further, the GI50 in the experiment with HT-29 is > 10 µM (inactive); with RXF 393, > 9.62 µM (inactive).
Turning to `Cn1ccnc1Sc1ccc(/C=N\NC(=O)c2cccc(F)c2)cc1[N+](=O)[O-]`, the GI50 was > 100 µM (inactive) with ACHN; 22.7 µM (inactive) with HOP-92; 21.1 µM (inactive) in the experiment on U-251; > 100 µM (inactive) with COLO 205; 36.1 µM (inactive) with T47D; > 100 µM (inactive) in the experiment on K562. Also, the GI50 with NCI-H226 is > 100 µM (inactive); in the experiment with SNB-19, 27.8 µM (inactive); in the experiment on MDA-MB-435 it was 61.1 µM (inactive); with HL-60, > 100 µM (inactive); in the experiment on RPMI-8226, > 100 µM (inactive); in the experiment with TK-10, > 100 µM (inactive). Moreover, the GI50 in the experiment with UO-31 is > 100 µM (inactive); in the experiment with CCRF-CEM, > 100 µM (inactive); in the experiment with MDA-MB-231, 80.2 µM (inactive); in the experiment on NCI-H522 it was 24.7 µM (inactive); in the experiment with UACC-257 it was > 100 µM (inactive); in the experiment on EKVX, 45.1 µM (inactive). The GI50 with HT-29 is > 100 µM (inactive); in the experiment on RXF 393, 34.8 µM (inactive).
For the compound `Cn1c2ccccc2c2c(-c3ccccc3)cc3c(c21)C(=O)C=CC3=O`, the GI50 in the experiment on ACHN is 1.63 µM (inactive); in the experiment on HOP-92, 1.96 µM (inactive); in the experiment on U-251, 4.05 µM (inactive); in the experiment on COLO 205, 0.632 µM (active); in the experiment with T47D, 1.38 µM (inactive); in the experiment on K562, 0.249 µM (active). Moreover, the GI50 is 2.18 µM (inactive) in the experiment on NCI-H226; 4.05 µM (inactive) with SNB-19; 1.92 µM (inactive) in the experiment on MDA-MB-435; 0.361 µM (active) in the experiment with HL-60; 1.15 µM (inactive) in the experiment with RPMI-8226; 1.92 µM (inactive) in the experiment on TK-10. Besides, the GI50 was 1.61 µM (inactive) in the experiment with UO-31; 0.228 µM (active) with CCRF-CEM; 2.43 µM (inactive) in the experiment with MDA-MB-231; 1.23 µM (inactive) in the experiment on NCI-H522; 2.11 µM (inactive) with UACC-257; > 5.3 µM (inactive) in the experiment on EKVX. The GI50 with HT-29 is 3.83 µM (inactive); in the experiment with RXF 393, 2.2 µM (inactive).
Turning to `O=C(O)C(O)C(O)C(O)C(O)CO.[Ba+2]` (stereo not given), the GI50 in the experiment with ACHN, with HOP-92, in the experiment on U-251, in the experiment with COLO 205, with T47D and with K562 was > 100 µM (inactive) in each case. Besides, the GI50 was > 100 µM (inactive) in the experiment with NCI-H226; > 100 µM (inactive) in the experiment with SNB-19; > 100 µM (inactive) in the experiment on MDA-MB-435; 3.12 µM (inactive) in the experiment on HL-60; > 100 µM (inactive) in the experiment on RPMI-8226; > 100 µM (inactive) with TK-10. The GI50 in the experiment with UO-31, in the experiment with CCRF-CEM, in the experiment with MDA-MB-231, in the experiment on NCI-H522, in the experiment on UACC-257 and with EKVX was > 100 µM (inactive) each time. In addition, the GI50 in the experiment with HT-29 and with RXF 393 was > 100 µM (inactive) each time.
In the case of `N=C(Cc1ccccc1)NCC(=O)O`, the GI50 in the experiment with ACHN, with HOP-92, in the experiment on U-251, in the experiment on COLO 205, in the experiment with T47D and in the experiment with K562 was > 100 µM (inactive) throughout. The GI50 in the experiment with NCI-H226, with SNB-19, with MDA-MB-435, in the experiment with HL-60, with RPMI-8226 and in the experiment with TK-10 was > 100 µM (inactive) throughout. The GI50 in the experiment on UO-31, with CCRF-CEM, in the experiment on MDA-MB-231, in the experiment on NCI-H522, with UACC-257 and in the experiment with EKVX was > 100 µM (inactive) throughout. Besides, the GI50 in the experiment on HT-29 and in the experiment on RXF 393 was > 100 µM (inactive) in each case.
For `CSc1nc(O)c(C#N)c(-c2ccccc2)n1`, the GI50 was > 100 µM (inactive) with ACHN; 97.5 µM (inactive) in the experiment on HOP-92; > 100 µM (inactive) in the experiment with U-251; > 100 µM (inactive) in the experiment on COLO 205; 64.9 µM (inactive) in the experiment on T47D; > 100 µM (inactive) in the experiment on K562. The GI50 in the experiment with NCI-H226, with SNB-19, with MDA-MB-435, with HL-60, in the experiment on RPMI-8226 and in the experiment with TK-10 was > 100 µM (inactive) each time. In addition, the GI50 with UO-31 was 78.3 µM (inactive); with CCRF-CEM, > 100 µM (inactive); with MDA-MB-231, > 100 µM (inactive); in the experiment with NCI-H522 it was 53.1 µM (inactive); in the experiment on UACC-257 it was > 100 µM (inactive); in the experiment on EKVX, > 100 µM (inactive). Further, the GI50 with HT-29 and in the experiment with RXF 393 was > 100 µM (inactive) each time.
On to `COC(=O)CCSC1=CC(=O)c2nc3ccccc3c3ccnc1c23`, for which the GI50 was 19.4 µM (inactive) in the experiment on ACHN; 25.7 µM (inactive) in the experiment on HOP-92; 32.4 µM (inactive) in the experiment with U-251; 13.6 µM (inactive) in the experiment with COLO 205; 18.7 µM (inactive) in the experiment with T47D; 8.47 µM (inactive) in the experiment on K562. In addition, the GI50 in the experiment on NCI-H226 is 47.1 µM (inactive); in the experiment on SNB-19, > 100 µM (inactive); in the experiment with MDA-MB-435 it was 7.4 µM (inactive); in the experiment with HL-60, 3.61 µM (inactive); with RPMI-8226, 23.6 µM (inactive); with TK-10 it was 14.2 µM (inactive). The GI50 was 15.3 µM (inactive) with UO-31; 4.49 µM (inactive) with CCRF-CEM; 27.5 µM (inactive) in the experiment on MDA-MB-231; 1.39 µM (inactive) in the experiment on NCI-H522; 17.2 µM (inactive) in the experiment with UACC-257; 18.9 µM (inactive) in the experiment on EKVX. The GI50 in the experiment on HT-29 is 18 µM (inactive); in the experiment on RXF 393, 20.3 µM (inactive).
As to `CCCOc1cc2c(cc1O)CC[C@@H]1[C@@H]2CC[C@]2(C)[C@@H](O)CC[C@@H]12`, the GI50 in the experiment with ACHN is 5.2 µM (inactive); with HOP-92 it was 10.3 µM (inactive); in the experiment with U-251, 1.87 µM (inactive); in the experiment on COLO 205, 12 µM (inactive); in the experiment with T47D it was 3.19 µM (inactive); in the experiment with K562, 0.209 µM (active). Moreover, the GI50 in the experiment with NCI-H226 was 5.97 µM (inactive); in the experiment with SNB-19, 6.71 µM (inactive); in the experiment with MDA-MB-435, 0.284 µM (active); in the experiment with HL-60 it was 0.637 µM (active); in the experiment on RPMI-8226, 1.83 µM (inactive); in the experiment with TK-10, 7.5 µM (inactive). Moreover, the GI50 with UO-31 is 4.95 µM (inactive); in the experiment with CCRF-CEM it was 1.56 µM (inactive); in the experiment on MDA-MB-231 it was 5.56 µM (inactive); with NCI-H522 it was 0.383 µM (active); in the experiment on UACC-257 it was 5.04 µM (inactive); in the experiment on EKVX, 6.27 µM (inactive). Also, the GI50 is 7.57 µM (inactive) in the experiment with HT-29 and 2.25 µM (inactive) with RXF 393.
Turning to `COC(=O)[C@H]1CO[C@H]2C/C(C)=C/CC/C(C)=C/CC[C@@]3(C)O[C@@H]3C[C@H]21`, the GI50 in the experiment on ACHN was 17.5 µM (inactive); in the experiment on HOP-92 it was 17.5 µM (inactive); with U-251, 18.6 µM (inactive); in the experiment with COLO 205 it was 10.8 µM (inactive); in the experiment with T47D it was 20.5 µM (inactive); in the experiment on K562, 7.69 µM (inactive). For the same compound, the GI50 in the experiment with NCI-H226 was 12 µM (inactive); in the experiment on SNB-19, > 50 µM (inactive); in the experiment with MDA-MB-435 it was 11.5 µM (inactive); with HL-60, 10.7 µM (inactive); with RPMI-8226, 14.1 µM (inactive); in the experiment on TK-10, 20 µM (inactive). Further, the GI50 in the experiment with UO-31 was 13.4 µM (inactive); with CCRF-CEM, 10 µM (inactive); in the experiment on MDA-MB-231, 10.8 µM (inactive); in the experiment with NCI-H522 it was 8.79 µM (inactive); in the experiment on UACC-257 it was 18.4 µM (inactive); with EKVX, 19.5 µM (inactive). The GI50 in the experiment on HT-29 is 17.9 µM (inactive); in the experiment with RXF 393, 12.9 µM (inactive).
As for `OCc1ccc2c(c1)CC1(C2)Cc2cc3c(cc2C1O)CCC3` (stereo not given), the GI50 is 6.67 µM (inactive) in the experiment on ACHN; 12.2 µM (inactive) with HOP-92; 3.3 µM (inactive) with U-251; 3.17 µM (inactive) in the experiment on COLO 205; 1.36 µM (inactive) with T47D; 1.58 µM (inactive) with K562. Moreover, the GI50 is 7.31 µM (inactive) in the experiment on NCI-H226; 4.97 µM (inactive) in the experiment on SNB-19; 0.65 µM (active) in the experiment with MDA-MB-435; 2.2 µM (inactive) with HL-60; 3.18 µM (inactive) with RPMI-8226; 21.9 µM (inactive) in the experiment on TK-10. In addition, the GI50 is 5.9 µM (inactive) in the experiment on UO-31; 4.01 µM (inactive) in the experiment with CCRF-CEM; 2.65 µM (inactive) with MDA-MB-231; 3.23 µM (inactive) in the experiment with NCI-H522; 2.3 µM (inactive) in the experiment with UACC-257; 10.1 µM (inactive) in the experiment with EKVX. The values for the GI50 with HT-29 and with RXF 393 were 3.27 µM (inactive) and 2.77 µM (inactive), respectively.
